Laboratory results as given in patent US20130259884A1, “PEPTIDES” ([…] SL, priority 2010, published 2013).
Where a SMILES comes first, the peptide text is derived from it.

Test: Water solubility of peptides when preparing stock solutions
Assay type: physicochemical
Conditions: stock solution in sterile distilled water or 100% DMSO; read-out: solubility of peptide (water soluble or water insoluble, dissolved in DMSO)
Description: For challenge, peptides were administered as follows: • Individual peptides (soluble). Individual water soluble peptides were dissolved as 10, 5 or 2.5 mg/ml stock solutions in sterile distilled water. Before use, each peptide was diluted in water to 2 mg/ml and 10 μl of this 2 mg/ml mix was added to 990 μl of media. Then 100 μl of this peptide/media mix was added to 100 μl of media containing 350,000 PBMC in an ELISPOT anti-IL-4 coated cell culture plate well for a final peptide concentration of 10 μg/ml. Identically diluted media only was added to the cells and used for the no peptide media control wells (media only). • Individual peptides (DMSO). Individual water insoluble peptides were dissolved in 100% DMSO to a stock concentration of 50 mg/ml. Before use each peptide was diluted in water to 2 mg/ml and then 10 μl of the 2 mg/ml mix was added to 990 μl of cell-culture media. Then 100 μl of this peptide/media mix was added to 100 μl of media containing 350,000 PBMC in an ELISPOT anti-IL-4 coated cell culture plate well for a final peptide concentration of 10 μg/ml. Identically diluted media only was added to the cells and used for the no peptide media control wells (media only). • A combination preparation containing Alt a 1 soluble peptides (33.2, 34.3, 35.4, 35.5, 37.3.1, 37.4.1, L6-5.01, L10-1.01, L10-2.01, L10-3), called Alt a 1 Sol. Each peptide was diluted from water stock to 2 mg/ml in sterile distilled water. Then 10 μl of each peptide required for the combined preparation was mixed and brought up to 1 ml in media. Then 100 μl of this peptide/media mix was added to 100 μl of media containing 350,000 PBMC in an ELISPOT anti-IL-4 coated cell culture plate well for a final concentration of each peptide of 10 μg/ml. Identically diluted media only was used for the no peptide control wells (media only). • A combination preparation containing Alt a 1 DMSO peptides (32.2.1, 38.2.1, 35.2, 35.3, L6-2, L6-3, L6-4, 38.3, 37.2), called Alt a 1 DMSO. Each peptide was diluted from DMSO stock to 2 mg/ml in sterile distilled water. Then 10 μl of each peptide required for the combined preparation was mixed and brought up to 1 ml in media. Then 100 μl of this peptide/media mix is added to 100 μl of media containing 350,000 PBMC in an ELISPOT anti-IL-4 coated cell culture plate well for a final concentration of each peptide of 10 μg/ml. Identically diluted media only was used for the no peptide control wells (media only). • A combination preparation containing non-Alt a 1 soluble peptides (40.2, 41.2, 43.2, 44.2, 46.2, 47.2.1, 56.2, 57.2.1, 60.2, 62.2.1, 67.2, 71.3), called Alt a Other Sol. Each peptide was diluted from water stock to 2 mg/ml in sterile distilled water. Then 10 μl of each peptide required for the combined preparation was mixed and brought up to 1 ml in media, Then 100 μl of this peptide/media mix was added to 100 μl of media containing 350,000 PBMC in an ELISPOT anti-IL-4 coated cell culture plate well for a final concentration of each peptide at 10 μg/ml. Identically diluted media only was used for the no peptide control wells (media only). • A combination preparation containing non-Alt a 1 DMSO peptides (39.2, 42.2, 45.2, 48.2.1, 50.2, 51.2.1, 61.2.1, 66.3.1, 68.2.1, 70.2, 71.2, 72.2), called Alt a Other DMSO. Each peptide was diluted from DMSO stock to 2 mg/ml in sterile distilled water. Then 10 ul of each peptide required for the combined preparation was mixed and brought up to 1 ml in media, Then 100 μl of this peptide/media mix was added to 100 μl of media containing 350,000 PBMC in an ELISPOT anti-IL-4 coated cell culture plate well for a final concentration of each peptide at 10 μg/ml. Identically diluted media only was used for the no peptide control wells (media only).

SMILES | solubility
CC(C)C[C@H](NC(=O)[C@@H](NC(=O)CNC(=O)[C@H](Cc1c[nH]c2ccccc12)NC(=O)CNC(=O)[C@H](C)NC(=O)CN)C(C)C)C(=O)N[C@H](C(=O)N[C@@H](CO)C(=O)N[C@@H](Cc1c[nH]cn1)C(=O)N[C@@H](CCCNC(=N)N)C(=O)N[C@@H](CO)C(=O)NCC(=O)N[C@@H](CCC(=O)O)C(=O)N[C@H](C(=O)O)[C@@H](C)O)C(C)C [Peptide 62.2.1, GAGWGVLVSHRSGET] (H-GAGWGVLVSHRSGET-OH) | > 2500 µg/mL
CC(C)C[C@H](NC(=O)[C@H](CC(N)=O)NC(=O)[C@H](C)NC(=O)[C@H](CC(C)C)NC(=O)[C@H](CC(C)C)NC(=O)[C@H](CO)NC(=O)[C@H](Cc1ccccc1)NC(=O)[C@H](C)NC(=O)[C@@H](NC(=O)[C@H](CCCCN)NC(=O)[C@H](Cc1ccc(O)cc1)NC(=O)CNC(=O)[C@H](CC(C)C)NC(=O)[C@@H]1CCCN1C(=O)[C@@H](N)C(C)C)[C@@H](C)O)C(=O)O [Peptide 66.3.1, VPLGYKTAFSLLANL] (H-VPLGYKTAFSLLANL-OH) | < 2500 µg/mL
CC[C@H](C)[C@H](NC(=O)[C@H](CC(=O)O)NC(=O)[C@H](CCC(N)=O)NC(=O)[C@@H]1CCCN1C(=O)[C@@H](NC(=O)[C@H](Cc1ccccc1)NC(=O)[C@H](CC(=O)O)NC(=O)[C@H](CO)NC(=O)[C@@H](N)CC(C)C)C(C)C)C(=O)N[C@@H](CCC(N)=O)C(=O)N[C@@H](CCCCN)C(=O)N[C@@H](CC(C)C)C(=O)N[C@@H](Cc1c[nH]c2ccccc12)C(=O)N[C@@H](Cc1c[nH]cn1)C(=O)N[C@@H](CO)C(=O)O [Peptide 67.2, LSDFVPQDIQKLWHS] (H-LSDFVPQDIQKLWHS-OH) | > 2500 µg/mL
CC(C)[C@H](NC(=O)[C@H](Cc1ccc(O)cc1)NC(=O)[C@H](CO)NC(=O)[C@H](CO)NC(=O)[C@H](C)NC(=O)[C@H](CC(=O)O)NC(=O)[C@H](CO)NC(=O)[C@H](C)NC(=O)[C@H](Cc1ccccc1)NC(=O)[C@H](Cc1ccc(O)cc1)NC(=O)[C@@H](NC(=O)[C@H](Cc1ccc(O)cc1)NC(=O)[C@H](C)NC(=O)CNC(=O)[C@@H](N)CCCCN)C(C)C)C(=O)O [Peptide 68.2.1, KGAYVYFASDASSYV] (H-KGAYVYFASDASSYV-OH) | < 2500 µg/mL
CC[C@H](C)[C@H](NC(=O)[C@H](Cc1ccccc1)NC(=O)[C@H](Cc1ccc(O)cc1)NC(=O)CNC(=O)[C@H](CCCCN)NC(=O)[C@@H](N)CC(=O)O)C(=O)N[C@@H](CCC(=O)O)C(=O)N1CCC[C@H]1C(=O)N[C@H](C(=O)N[C@H](C(=O)N[C@@H](Cc1ccccc1)C(=O)N[C@@H](CO)C(=O)N[C@@H](CC(N)=O)C(=O)N[C@H](C(=O)N[C@H](C(=O)O)[C@@H](C)O)C(C)C)[C@@H](C)CC)[C@@H](C)O [Peptide 70.2, DKGYFIEPTIFSNVT] (H-DKGYFIEPTIFSNVT-OH; N-terminus and C-terminus assumed) | < 2500 µg/mL
CC[C@H](C)[C@H](NC(=O)[C@H](CO)NC(=O)[C@@H](NC(=O)[C@@H](NC(=O)[C@H](CCCCN)NC(=O)[C@@H](NC(=O)[C@H](CCC(N)=O)NC(=O)[C@@H](NC(=O)[C@H](Cc1ccc(O)cc1)NC(=O)[C@H](CC(N)=O)NC(=O)[C@H](CC(=O)O)NC(=O)[C@@H](N)CC(C)C)[C@@H](C)CC)[C@@H](C)O)[C@@H](C)O)C(C)C)C(=O)N[C@@H](CCCNC(=N)N)C(=O)N[C@@H](CC(C)C)C(=O)NCC(=O)O [Peptide 71.2, LDNYIQTKTVSIRLG] (H-LDNYIQTKTVSIRLG-OH) | < 2500 µg/mL
CC[C@H](C)[C@H](NC(=O)[C@H](CO)NC(=O)[C@@H](NC(=O)[C@@H](NC(=O)[C@H](CCCCN)NC(=O)[C@@H](NC(=O)[C@@H](N)CCC(N)=O)[C@@H](C)O)[C@@H](C)O)C(C)C)C(=O)N[C@@H](CCCNC(=N)N)C(=O)N[C@@H](CC(C)C)C(=O)NCC(=O)N[C@@H](CC(=O)O)C(=O)N[C@H](C(=O)N[C@@H](CC(C)C)C(=O)N[C@@H](Cc1ccccc1)C(=O)NCC(=O)O)C(C)C [Peptide 71.3, QTKTVSIRLGDVLFG] (H-QTKTVSIRLGDVLFG-OH) | > 2500 µg/mL
CC(C)C[C@H](NC(=O)[C@H](CCC(N)=O)NC(=O)[C@H](Cc1c[nH]c2ccccc12)NC(=O)[C@H](Cc1c[nH]cn1)NC(=O)[C@H](CC(C)C)NC(=O)[C@@H](NC(=O)[C@H](CC(N)=O)NC(=O)[C@H](Cc1ccc(O)cc1)NC(=O)[C@H](CO)NC(=O)[C@H](CC(N)=O)NC(=O)[C@@H](NC(=O)[C@H](Cc1c[nH]c2ccccc12)NC(=O)[C@@H](NC(=O)[C@@H](NC(=O)CN)[C@@H](C)O)C(C)C)C(C)C)[C@@H](C)O)C(=O)O [Peptide 72.2, GTVWVNSYNTLHWQL] (H-GTVWVNSYNTLHWQL-OH) | < 2500 µg/mL
CC[C@H](C)[C@H](N)C(=O)N[C@@H](C)C(=O)N[C@@H](CO)C(=O)N[C@@H](CC(C)C)C(=O)N[C@@H](Cc1ccccc1)C(=O)N[C@@H](C)C(=O)N[C@@H](C)C(=O)N[C@@H](C)C(=O)NCC(=O)N[C@@H](CC(C)C)C(=O)N[C@@H](C)C(=O)N[C@@H](C)C(=O)N[C@@H](C)C(=O)N[C@@H](C)C(=O)N1CCC[C@H]1C(=O)O [Peptide L6-2, IASLFAAAGLAAAAP] | < 2500 µg/mL
CC(C)C[C@H](NC(=O)[C@@H]1CCCN1C(=O)[C@H](C)NC(=O)[C@H](C)NC(=O)[C@H](C)NC(=O)[C@H](C)NC(=O)[C@H](CC(C)C)NC(=O)CNC(=O)[C@H](C)NC(=O)[C@H](C)NC(=O)[C@H](C)NC(=O)[C@H](Cc1ccccc1)NC(=O)[C@H](CC(C)C)NC(=O)[C@H](CO)NC(=O)[C@H](C)N)C(=O)O [Peptide L6-3, ASLFAAAGLAAAAPL] (H-ASLFAAAGLAAAAPL-OH) | < 2500 µg/mL
CC[C@H](C)[C@H](NC(=O)[C@H](CC(N)=O)NC(=O)[C@H](Cc1ccccc1)NC(=O)CNC(=O)[C@H](CC(C)C)NC(=O)[C@H](CO)NC(=O)[C@H](CC(N)=O)NC(=O)[C@H](Cc1ccc(O)cc1)NC(=O)[C@H](Cc1ccc(O)cc1)NC(=O)[C@@H](NC(=O)CN)[C@@H](C)O)C(=O)N[C@@H](CCCCN)C(=O)N[C@@H](C)C(=O)N[C@H](C(=O)N[C@@H](CC(N)=O)C(=O)O)[C@@H](C)O [Peptide L6-4, GTYYNSLGFNIKATN] (H-GTYYNSLGFNIKATN-OH) | < 2500 µg/mL
CC(C)C[C@H](N)C(=O)N1CCC[C@H]1C(=O)N[C@@H](CC(N)=O)C(=O)N[C@@H](Cc1ccc(O)cc1)C(=O)N[C@H](C(=O)N[C@@H](CCCNC(=N)N)C(=O)N[C@@H](C)C(=O)NCC(=O)NCC(=O)N[C@@H](CC(N)=O)C(=O)NCC(=O)N1CCC[C@H]1C(=O)N[C@@H](CCCCN)C(=O)N[C@@H](CC(=O)O)C(=O)N[C@@H](Cc1ccccc1)C(=O)O)C(C)C [Peptide L6-5.01, LPNYVRAGGNGPKDF] (H-LPNYVRAGGNGPKDF-OH) | > 2500 µg/mL
CC(C)C[C@H](NC(=O)[C@H](CCCCN)NC(=O)[C@H](CC(=O)O)NC(=O)[C@H](C)NC(=O)[C@H](CCC(N)=O)NC(=O)[C@H](C)NC(=O)[C@H](CO)NC(=O)[C@@H](NC(=O)[C@@H](NC(=O)[C@H](Cc1ccccc1)NC(=O)[C@H](CC(=O)O)NC(=O)[C@H](CC(C)C)NC(=O)[C@@H](NC(=O)CNC(=O)CN)[C@@H](C)O)[C@@H](C)O)C(C)C)C(=O)O [Peptide L10-1.01, GGTLDFTVSAQADKL] (H-GGTLDFTVSAQADKL-OH) | > 2500 µg/mL
